Measurements from US20130195956A1, “Transdermal Hormone Delivery” (Agile Therapeutics, Inc., priority 2012, published 2013).
Where “and” joins values, the source holds several entries; their conditions need not be identical. Identical values can stand only once.

Legend:
[1] = Skin permeation of LNG from LNG/EE patches with four enhancers, Franz diffusion cells, human skin compared with rat skin; type: in vitro ADME; conditions: patches of Example 1 with four skin permeation enhancers; FIGS. 1-4
Method: A skin permeation experiment for the delivery of LNG from the patches prepared in Example 1 was performed (n=3). Three separate patches were cut to appropriate size such that they would cover the top of the receptor compartment of a Franz skin diffusion cell (exposed surface area of 0.64 cm^2). Hairless rat skin was freshly excised before the permeation experiment. PBS (0.1×) having 80 mg/L gentamycin sulfate and 0.5% Volpo was used as the receptor buffer (pH 7.2). Samples (0.5 ml) were taken at predetermined time points (3 hr, 6 hr, 12 hr, 24 hr, 2nd, 3rd, 4th, 5th, 6th and 7th day) and were analyzed for LNG levels using High Pressure Liquid Chromatography (HPLC).
The average flux (FIG. 1) and the cumulative amount (FIG. 2) of LNG that permeated across the hairless rat skin, during a period of four days, were determined and are shown below. In addition, patches manufactured using production equipment under the same processes and containing exactly the same amounts and ingredients as the pilot patches mentioned in Example 1 were used for comparison.
The above studies were performed using rat skin, which, for many drugs, is known to have similar permeation characteristics as human skin. […]

[2] = cited from earlier work
[3] = 7 day in vitro skin permeation, Franz diffusion cells, hairless rat abdominal skin; conditions: for average cumulative amount permeated at the end of 7 days: donor: saturated solution in PEG-400, FIG. 6
Source text: Skin was isolated from hairless rats (male, 8-10 weeks old and 350-400 g in weight) that were obtained from Charles River (Wilmington, Mass., USA). All the animals were allowed to acclimate for at least 1 week prior to their use in any experiment. […] Hairless rats were euthanized by carbon dioxide asphyxiation prior to the permeation experiment and abdominal skin was carefully excised using a pair of scissors and forceps. The underlying subcutaneous fat was removed from the excised skin and the abdominal skin thus obtained (˜1 mm thick) was used for the permeation experiments.
The 7 day permeation studies were performed using in vitro Franz diffusion cells (PermeGear, Inc., Hellertown, Pa., USA) having an effective diffusion surface area of 0.64 cm^2 (n≧3). […] These served as corresponding donor solutions. The receptor phase consisted of PEG 400 having gentamycin sulfate (80 mg/L). Gentamycin sulfate was added to the receptor phase to prevent microbial growth during the 7 day study. During the entire study, the receptor phase was maintained at 37° C. with constant stirring at 600 rpm. Freshly excised and cleaned hairless rat abdominal skin was obtained on the day of the experiment. This isolated skin was placed in between the donor and the receptor compartments and the entire set up was then secured in place using a clamp. Donor solution (0.5 ml) was then loaded into the donor cells using a pipette and the top was covered using parafilm and a silver foil. […] The only difference was that instead of using the saturated desogestrel solution as donor, desogestrel containing patches were used. Transdermal patches, large enough to cover the receptor compartment top, were cut out of the cast sheets, the release liner was removed and the patches were placed on the skin such that the adhesive side of the patch was facing the stratum corneum side of the skin. The donor cell was then placed and the entire set up was secured using a clamp. All samples obtained were analyzed using HPLC.
Analysis of the amount of drug in the samples was performed using a chromatographic method described in the literature with few modifications. […] Phenomenex RP C6 Luna 5μ column (Phenomenex, Torrance, Calif.) set at 35° C. was employed for gradient elution method. The mobile phase consisted of methanol and water. The gradient method was initiated with the use of a 70:30 (methanol:water) solution, followed by a change of the mobile phase composition to 100% methanol over the next 7 minutes. This methanol:water (100:0) composition was maintained till the 10th minute and then the mobile phase composition was changed again to a composition of 70:30 (methanol:water) by the 12th min. The run time of each injection was 15 minutes and the injection volume was 100 μl. The flow rate of the mobile phase throughout the run was 1.5 ml/min. […] The standard curve was linear over the range of 0.5-100 μg.
Student t-test and analysis of variance (ANOVA) were used to determine statistically significant differences. The p-value used in this study was 0.05.

[4] = Method: Sheets were cast with the blend shown in Table 1 and dried for 17 minutes at 60 degrees Centigrade. Drying was followed by lamination to a polyester backing membrane and circular cutting of individual patches. The dry formulation of the patches is shown in the second column of Table 1.
[5] = Slide and patch crystallization studies for saturation solubility in adhesives and additives; type: physicochemical
Method: Drug in adhesive transdermal patches were prepared as follows. Predetermined amounts of drug, adhesive, ethyl acetate and/or additives (copovidone/mineral oil) were weighed into a glass container with lid and sealed using a parafilm to minimize loss of organic solvents. The formulation was stirred for 2 hours using a magnetic stirrer to form a homogenous mixture. The mixture was then cast on a release liner (3 mil fluoropolymer coated polyester film, Scotchpak™ 9744 from 3M) using a Gardner film casting knife (BYK-AG-4300 series, Columbia, Md., USA) and the cast sheet was dried in an oven at 60° C. for 17 minutes. Thereafter, the entire sheet was laminated using a backing membrane (2 mil polyester with an ethylene vinyl acetate copolymer, Scotchpak™ 9732 from 3M), which was placed on the cast film using a roller, ensuring no air pockets were formed. […]
The three different adhesives that were investigated for the preparation of desogestrel transdermal patches were two acrylate adhesives, Duro-Tak 87-4098 and Duro-Tak 87-202A, and one PIB adhesive, Duro-Tak 87-608A. […] The saturation solubility of desogestrel in these adhesives was determined using the slide method discussed earlier as well as crystallization studies on complete patches. […]

[6] = general statement in description

| Structure (SMILES) | permeation through rat skin compared with permeation through human skin [1] | logP [2] | average cumulative amount permeated at the end of 7 days ([3]; hairless rat skin) [μg/sq.cm] | saturation of the patch with the hormone [4] [%] | saturation solubility in PIB adhesive (Duro-Tak 87-608A) ([5]; slides and patches) | saturation solubility in copovidone (Plasdone S-630) ([5]; slides, drug:copovidone w/w ratios, up to 6 months) | skin permeation relative to ethinyl estradiol [3, 6] | skin permeation relative to levonorgestrel [3, 6] | average cumulative amount and flux from saturated PEG solution compared with optimized patches ([3]; p<0.05, hairless rat skin) | average flux and cumulative amount compared with levonorgestrel ([3]; saturated PEG-400 solutions, p<0.05, FIGS. 5 and 6) |
| --- | --- | --- | --- | --- | --- | --- | --- | --- | --- | --- |
| C#C[C@]1(O)CC[C@H]2[C@@H]3CCC4=CC(=O)CC[C@@H]4[C@H]3CC[C@@]21CC [levonorgestrel] | very similar | 3.8 | 1.8±0.1 | – | – | – | – | – | – | – |
| C#C[C@]1(O)CC[C@H]2[C@@H]3CCc4cc(O)ccc4[C@H]3CC[C@@]21C [ethinyl estradiol] | – | – | – | 22 | – | – | – | – | – | – |
| C#C[C@]1(O)CC[C@H]2[C@@H]3CCC4=CCCC[C@@H]4[C@H]3C(=C)C[C@@]21CC [desogestrel] | – | 4 | 389.4±6.2 | – | 3-4 % w/w | 70-80 % w/w and 70 % w/w | higher | approximately ten-fold higher | significantly higher | significantly higher |
